In PMC10326263 (Acta Pharmaceutica Sinica. B, 2023):

How the values were obtained:
[1] = test system: HIV-1 mutant strain K103N; assay: microbe, parasite or virus in culture; assay type: cell-based; conditions: Human immunodeficiency virus 1, MT4, read-out: EC50 K103N
[2] = Cytotoxicity in mock-infected MT-4 cells, MTT method; assay type: cell-based; conditions: human, mock-infected MT-4 cells, CC50, mock-infected MT-4 cells
[3] = test system: HIV-1 mutant strain Y181C; assay: microbe, parasite or virus in culture; assay type: cell-based; conditions: Human immunodeficiency virus 1, MT4, read-out: EC50 Y181C
HIV-1 WT strain (IIIB) = assay: Anti-HIV activity against WT HIV-1; conditions: WT HIV-1 IIIB
[4] = test system: HIV-1 mutant strain E138K; assay: microbe, parasite or virus in culture; assay type: cell-based; conditions: Human immunodeficiency virus 1, MT4, read-out: EC50 E138K
[5] = test system: HIV-1 mutant strain L100I; assay: microbe, parasite or virus in culture; assay type: cell-based; conditions: Human immunodeficiency virus 1, MT4, read-out: EC50 L100I
[6] = test system: HIV-1 mutant strain RES056 (K103N + Y181C); assay: microbe, parasite or virus in culture; assay type: cell-based; conditions: Human immunodeficiency virus 1, MT4, read-out: EC50 RES056
[7] = test system: HIV-1 mutant strain Y188L; assay: microbe, parasite or virus in culture; assay type: cell-based; conditions: Human immunodeficiency virus 1, MT4, read-out: EC50 Y188L
[8] = test system: HIV-1 mutant strain F227L + V106A; assay: microbe, parasite or virus in culture; assay type: cell-based; conditions: Human immunodeficiency virus 1, MT4, read-out: EC50 F227L + V106A

Q: For `Cc1cc(C)cc(S(=O)(=O)c2c(C(=O)NCCCCCNS(=O)(=O)c3ccc(F)cc3)[nH]c3ccc(Cl)cc23)c1` [R4L5, 5-Chloro-3-((3,5-dimethylphenyl)sulfonyl)-N-(5-((4-fluorophenyl)sulfonamido)pentyl)-1H-indole-2-carboxamide], which EC50 [1] is on record?
A: 0.51 ± 0.21 µM

Q: What about the CC50 at 5 days [2] of the same molecule?
A: 144 ± 13.2 µM

Q: What about the EC50 [3] of the same molecule?
A: 0.18 ± 0.017 µM

Q: And the “SI IIIB (CC50/EC50 ratio)” value (HIV-1 WT strain (IIIB))?
A: 7527

Q: And the EC50 [4]?
A: 0.073 ± 0.02 µM

Q: What about the EC50 [5] of the same molecule?
A: 0.074 ± 0.01 µM

Q: And the EC50 [6]?
A: > 31.2 µM

Q: And the EC50 [7]?
A: 1.67 ± 0.35 µM

Q: And the EC50 [8]?
A: 0.38 ± 0.017 µM

Q: Which EC50 [1] does the source give for `Cc1cc(C)cc(S(=O)(=O)c2c(C(=O)NCCNS(=O)(=O)c3ccc(C#N)cc3)[nH]c3ccc(Cl)cc23)c1` [R5L2, 5-Chloro-3-((3,5-dimethylphenyl)sulfonyl)-N-(2-((4-cyanophenyl)sulfonamido)ethyl)-1H-indole-2-carboxamide] here?
A: 0.84 ± 0.035 µM

Q: And the CC50 at 5 days [2]?
A: 23.6 ± 0.58 µM

Q: What about the EC50 [3] of the same molecule?
A: 0.89 ± 0.018 µM

Q: And the “SI IIIB (CC50/EC50 ratio)” value (HIV-1 WT strain (IIIB))?
A: 362

Q: And the EC50 [4]?
A: 1.26 µM

Q: And the EC50 [5]?
A: 0.77 ± 0.035 µM

Q: And the EC50 [6]?
A: 3.37 ± 0.21 µM

Q: What about the EC50 [7] of the same molecule?
A: 3.07 ± 0.12 µM

Q: And the EC50 [8]?
A: 1.75 ± 0.053 µM

Q: With `Cc1cc(C)cc(S(=O)(=O)c2c(C(=O)NCCCNS(=O)(=O)c3ccc(C#N)cc3)[nH]c3ccc(Cl)cc23)c1` [R5L3, 5-Chloro-3-((3,5-dimethylphenyl)sulfonyl)-N-(3-((4-cyanophenyl)sulfonamido)propyl)-1H-indole-2-carboxamide] as the molecule, how does the EC50 [1] read?
A: 0.92 ± 0.41 µM

Q: And the CC50 at 5 days [2]?
A: 22.6 ± 0.89 µM

Q: What about the EC50 [3] of the same molecule?
A: 0.98 ± 0.051 µM

Q: What about the “SI IIIB (CC50/EC50 ratio)” value (HIV-1 WT strain (IIIB)) of the same molecule?
A: 732

Q: And the EC50 [4]?
A: 0.27 ± 0.017 µM

Q: What about the EC50 [5] of the same molecule?
A: 0.33 ± 0.034 µM

Q: And the EC50 [6]?
A: 4.09 µM

Q: And the EC50 [7]?
A: 3.34 ± 0.017 µM

Q: And the EC50 [8]?
A: 1.22 ± 0.051 µM

Q: What does the source list for `Cc1cc(C)cc(S(=O)(=O)c2c(C(=O)NCCCCNS(=O)(=O)c3ccc(C#N)cc3)[nH]c3ccc(Cl)cc23)c1` [R5L4, 5-Chloro-3-((3,5-dimethylphenyl)sulfonyl)-N-(4-((4-cyanophenyl)sulfonamido)butyl)-1H-indole-2-carboxamide]?
A: EC50 [1]: 0.067 ± 0.005 µM; CC50 at 5 days [2]: 4.58 ± 3.53 µM; EC50 [3]: 0.054 ± 0.002 µM; SI IIIB (CC50/EC50 ratio) (HIV-1 WT strain (IIIB)): 279; EC50 [4]: 0.032 ± 0.018 µM; EC50 [5]: 0.025 ± 0.002 µM; EC50 [6]: > 4.58 µM; EC50 [7]: 0.15 ± 0.01 µM; EC50 [8]: 0.082 ± 0.035 µM

Q: For `Cc1cc(C)cc(S(=O)(=O)c2c(C(=O)NCCCCCNS(=O)(=O)c3ccc(C#N)cc3)[nH]c3ccc(Cl)cc23)c1` [R5L5, 5-Chloro-3-((3,5-dimethylphenyl)sulfonyl)-N-(5-((4-cyanophenyl)sulfonamido)pentyl)-1H-indole-2-carboxamide], which EC50 [1] is on record?
A: 0.56 ± 0.13 µM

Q: What about the CC50 at 5 days [2] of the same molecule?
A: > 204 µM

Q: And the EC50 [3]?
A: 0.21 µM

Q: What about the “SI IIIB (CC50/EC50 ratio)” value (HIV-1 WT strain (IIIB)) of the same molecule?
A: >6158

Q: What about the EC50 [4] of the same molecule?
A: 0.16 ± 0.016 µM

Q: What about the EC50 [5] of the same molecule?
A: 0.077 ± 0.023 µM

Q: What about the EC50 [6] of the same molecule?
A: 11.9 ± 4.9 µM

Q: What about the EC50 [7] of the same molecule?
A: 1.7 ± 0.52 µM

Q: What about the EC50 [8] of the same molecule?
A: 0.34 ± 0.082 µM

Q: What does the source list for `Cc1cc(C)cc(S(=O)(=O)c2c(C(=O)NCCNS(=O)(=O)c3ccc(Br)cc3)[nH]c3ccc(Cl)cc23)c1` [R6L2, 5-Chloro-3-((3,5-dimethylphenyl)sulfonyl)-N-(2-((4-bromophenyl)sulfonamido)ethyl)-1H-indole-2-carboxamide]?
A: EC50 [1]: 0.95 ± 0.16 µM; CC50 at 5 days [2]: 151 ± 19.3 µM; EC50 [3]: 1.01 ± 0.032 µM; SI IIIB (CC50/EC50 ratio) (HIV-1 WT strain (IIIB)): 964; EC50 [4]: 1.27 ± 0.11 µM; EC50 [5]: 0.75 ± 0.064 µM; EC50 [6]: ≥ 12.2 µM; EC50 [7]: ≥ 33.7 µM; EC50 [8]: 2.73 ± 0.48 µM

Q: Which results are given for `Cc1cc(C)cc(S(=O)(=O)c2c(C(=O)NCCCNS(=O)(=O)c3ccc(Br)cc3)[nH]c3ccc(Cl)cc23)c1` [R6L3, 5-Chloro-3-((3,5-dimethylphenyl)sulfonyl)-N-(3-((4-bromophenyl)sulfonamido)propyl)-1H-indole-2-carboxamide]?
A: EC50 [1]: 1.04 ± 0.19 µM; CC50 at 5 days [2]: 88.1 ± 18.1 µM; EC50 [3]: 1.32 ± 0.19 µM; SI IIIB (CC50/EC50 ratio) (HIV-1 WT strain (IIIB)): 645; EC50 [4]: 0.47 ± 0.2 µM; EC50 [5]: 0.78 ± 0.14 µM; EC50 [6]: > 88.1 µM; EC50 [7]: 5.26 ± 1.04 µM; EC50 [8]: 1.48 ± 0.11 µM

Q: With `Cc1cc(C)cc(S(=O)(=O)c2c(C(=O)NCCCCNS(=O)(=O)c3ccc(Br)cc3)[nH]c3ccc(Cl)cc23)c1` [R6L4, 5-Chloro-3-((3,5-dimethylphenyl)sulfonyl)-N-(4-((4-bromophenyl)sulfonamido)butyl)-1H-indole-2-carboxamide] as the molecule, how does the EC50 [1] read?
A: 0.69 ± 0.11 µM

Q: What about the CC50 at 5 days [2] of the same molecule?
A: 26.9 ± 16.9 µM

Q: What about the EC50 [3] of the same molecule?
A: 0.6 ± 0.031 µM

Q: What about the “SI IIIB (CC50/EC50 ratio)” value (HIV-1 WT strain (IIIB)) of the same molecule?
A: 347

Q: What about the EC50 [4] of the same molecule?
A: 0.78 ± 0.54 µM

Q: What about the EC50 [5] of the same molecule?
A: 0.32 ± 0.15 µM

Q: What about the EC50 [6] of the same molecule?
A: > 26.9 µM

Q: And the EC50 [7]?
A: 1 ± 0.15 µM

Q: And the EC50 [8]?
A: 0.51 ± 0.092 µM
